What all share (assay type): physicochemical
The nature of series [1]: Durable stability against oxidation-reduction cycle (square-wave potential program, CV oxidation peak current). As to conditions: for Durability evaluation: change in oxidation peak current (CV) before and after 10000 oxidation-reduction cycles, 1.0×10^−4 mol/L in 0.1 mol/L tetrabutylammonium perchlorate in dichloroethane. On the procedure: The durable stability against the oxidation-reduction cycle of the organic EC compound according to the present invention was evaluated. Specifically, the durability against repetition of an oxidation-reduction was evaluated using the illustrated compound A-1, the illustrated compound A-3 and Ref-1 as evaluation targets.
The measurement of durability against repetition of an oxidation-reduction was performed using a solution prepared by dissolving each compound in a predetermined solvent as a target sample, using a measuring apparatus provided with a work electrode, a counter electrode and a reference electrode. Here, the electrodes provided in the measuring apparatus and the solvent used will be shown below.
Work electrode: Glassy carbon
(§1) Counter electrode: Platinum
(§2) Reference electrode: Silver
Supporting electrolyte (solvent): Solution of tetrabutylammonium perchlorate in dichloroethane (0.1 mol/L)
Solution concentration: 1.0×10^−4 mol/L
The above solution was subjected to a square-wave potential program including oxidation at a constant potential and reduction at a constant potential for 10000 times. Here, the oxidation at a constant potential is a process of applying a potential equal to or higher than the oxidation potential of a target compound to the above solution for 10 seconds, and the reduction at a constant potential is a process of applying a potential of 0 V based on the reference electrode (Ag/Ag^+) to the above solution for 10 seconds.
The durability against repetition of an oxidation-reduction was evaluated based on the change in the amount of oxidation peak current in cyclic voltammetry (CV) measurement before and after the oxidation-reduction cycles for 10000 times. Specifically, when the rate of change in the amount of oxidation peak current was less than 20%, the durability was evaluated as Good, and when the rate of change was 20% or more, the durability was evaluated as Poor.

Series [2] is described as follows: Measurement of solubility in propylene carbonate. The following applies: for solubility: organic solvent or mixture. From the text: [Measurement of Solubility in Propylene Carbonate]
Note that propylene carbonate is a solvent contained in the electrochromic layer constituting the EC device. Further, Ref-1 is a compound in which methyl groups having no ethylene oxide chains are substituted at the 3-position and the 4-position of the thiophene ring, and substituents (substituents corresponding to A1 and A2 in general formula [1]) at the ortho positions of the phenyl group bonded to the thiophene ring are hydrogen atoms (no substitution).

Series [3] can be described thus: Absorption spectrum in the neutral (bleached) state, UV-visible spectrophotometer. The following applies: in chloroform. On the procedure:
The illustrated compound A-1 obtained was dissolved in chloroform, and the resulting solution was measured using an ultraviolet and visible spectrophotometer (V-560 manufactured by JASCO Corporation). As a result, an absorption spectrum illustrated in FIG. 6 was obtained.
Solutions prepared by dissolving compounds synthesized in Examples in chloroform were measured for the absorption spectra in the neutral state (bleached state) using an ultraviolet and visible spectrophotometer (V-560 manufactured by JASCO Corporation).

Series [4] in a line: Absorption spectrum in the oxidized (colored) state, oxidation at constant potential. The following applies: 5.0×10^−4 mol/L in 0.1 mol/L tetrabutylammonium perchlorate in propylene carbonate. On the procedure: Next, the absorption spectra in the oxidized (colored) state were measured. Specifically, the absorption spectra were measured using a measuring cell provided with a work electrode, a counter electrode, a reference electrode and a liquid tank. Here, the electrodes provided in the measuring cell and the solute and solvent which are contained in the solution charged to the liquid tank will be shown below.
as §1, §2
Solute: Evaluation target compounds (illustrated compounds A-1 and A-3)
Solvent (supporting electrolyte): Solution of tetrabutylammonium perchlorate in propylene carbonate (0.1 mol/L)
(Note that the concentration of the solution charged to the liquid tank is 5.0×10^−4 mol/L.)
A compound was subjected to oxidation at a constant potential by applying a potential equal to or higher than the oxidation potential of the compound using the measuring cell to thereby measure the change in the absorption spectra and transmittance spectra. Here, the absorption peak wavelength in the colored state (oxidized state) and the absorption peak wavelength in the bleached state (neutral state) are shown in the following Table 3.

On to `COCCOCc1c(-c2c(OC)cccc2OC(C)C)sc(-c2c(OC)cccc2OC(C)C)c1COCCOC` [A-1], for which the Durability evaluation result in series [1] is given as “Good (when the rate of change in the amount of oxidation peak current was less than 20%, the durability was evaluated as Good)”. The solubility (as a rule, the concentration that dissolves in the medium under given conditions) in series [2] was at least 150 mM. The “absorption in the visible light region (neutral state)” value in series [3] is on record as “does not have absorption over the whole visible light region”. Also, in series [3] (neutral (bleached) state), the “Neutral absorption λmax” value turned out to be 282.0 nm. Further, the “Oxidized absorption λmax′” value in series [4] is listed as 415.8 nm.
On to `Cc1c(-c2ccccc2)sc(-c2ccccc2)c1C` [Ref-1], for which, in series [1], the Durability evaluation result was “Poor (when the rate of change was 20% or more, the durability was evaluated as Poor)”. Also, the “number of oxidation-reduction cycles after which the amount of oxidation peak current was decreased by 20%” value in series [1] (square-wave potential program, 10 s oxidation / 10 s reduction) is “about 2400 times”. In series [2] (6 mM), the “appearance of solution when a concentration of 6 mM was going to be prepared” value is on record as “turbid”. For the same compound, the solubility in series [2] was under 6 mM.

Source of the values: patent US9145382B2, “Organic compound and electrochromic device using the same” (CANON KABUSHIKI KAISHA, priority 2014, dated 2015).
